Assay results reported in US20250312339A1, “METHODS AND COMPOSITIONS COMPRISING A SHP2 INHIBITOR AND A PD-LI BINDING ANTAGONIST” (Genentech, Inc., priority 2022, published 2025).
“Also recorded” adds a separate entry of the source.

What was measured:
recombinant human SHP2 = target: T1, recombinant human SHP2 (Homo sapiens, UniProt Q06124); test: Inhibition of recombinant human SHP2; format: biochemical; conditions: allosteric inhibitor
T1 sequence (Q06124 1-593): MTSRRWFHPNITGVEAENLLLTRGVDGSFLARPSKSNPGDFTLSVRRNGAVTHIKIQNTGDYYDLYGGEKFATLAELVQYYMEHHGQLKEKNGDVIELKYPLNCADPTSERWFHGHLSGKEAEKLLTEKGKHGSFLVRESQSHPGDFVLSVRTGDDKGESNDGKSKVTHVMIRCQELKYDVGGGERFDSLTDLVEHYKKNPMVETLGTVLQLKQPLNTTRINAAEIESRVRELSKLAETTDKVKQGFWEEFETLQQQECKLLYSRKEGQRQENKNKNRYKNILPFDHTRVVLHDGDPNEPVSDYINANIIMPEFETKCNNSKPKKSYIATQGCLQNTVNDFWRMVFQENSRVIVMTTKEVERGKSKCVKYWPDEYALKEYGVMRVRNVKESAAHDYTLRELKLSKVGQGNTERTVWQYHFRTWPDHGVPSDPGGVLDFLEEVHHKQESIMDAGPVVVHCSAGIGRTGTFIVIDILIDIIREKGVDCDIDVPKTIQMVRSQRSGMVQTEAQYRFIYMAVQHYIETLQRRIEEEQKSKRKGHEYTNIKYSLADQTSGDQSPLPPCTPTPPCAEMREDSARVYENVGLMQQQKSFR
Description: (§1) Compound 1 is a potent allosteric inhibitor of recombinant human SHP2, with inhibitory concentration of 50% (IC50) of 0.7 nM. It has been characterized in numerous nonclinical cancer models.

EMT6 mammary tumors = test: Tumor immuno-profiling by flow cytometry after 7 days of treatment; format: in vivo, mice
Description: Tumor Immuno-profiling. Anti-tumor immunity was evaluated in EMT6 mammary tumors by flow cytometric immuno-profiling of tumor cells and tumor-infiltrating immune cells the tumor after 7-days of treatment with either vehicle and isotype control antibodies, single agent Compound 1 (60 mg/kg, PO, QD), anti-PD-L1 antibodies (10 mg/kg, IV, first dose, then 5 mg/kg, IP, twice per week), or the combination with of Compound 1 and anti-PD-L1.
The activation status of the TILs was assessed by assessing the expression of cytokines and effector molecules, including interferon gamma (IFNg), tumor necrosis factor alpha (TNFa) and granzyme B (GZMB) from tumor-derived T cells under restimulation conditions using PMA/ionomycin (FIG. 6A). […] There was also an increase of the frequency of CD8+ T cells expressing GZMB in tumors from mice treated with Compound 1 and anti-PD-L1 relative to the vehicle group (p=0.0137). (FIG. 6A). The polyfunctionality of tumor-infiltrating CD8^+ T cells (expressing IFNg and TNFa) was increased when mice were treated with Compound 1 alone or in combination with anti-PD-L1 antibodies relative to the vehicle group (p=0.0008 and p=0.0011, respectively). Markers of T cell activation and exhaustion were also assessed to determine if SHP2 inhibition by Compound 1 alone or in combination with anti-PD-L1 antibodies altered the phenotype of CD8+ T cells in the tumor.

[1] = tested on: SHP2 (ERKT/2 phosphorylation at Thr202/Tyr204) in EGFR-amplified KYSE-520 cells; test: SHP2 inhibition in cells by level of ERK phosphorylation; format: cell-based; conditions: Homo sapiens
Description: as §1

[2] = tested on: panel of kinases, receptors, ion channels, and transporters; test: Selectivity panel
Description: as §1

[3] = Anti-proliferative effect in cancer cell lines, 2D and anchorage-independent 3D formats; format: cell-based; conditions: numerous cell lines, 2D or 3D assays; read-out: IC50, proliferation
Source text: The anti-proliferative effect of Compound 1 has been assessed in multiple cancer cell lines using 2D and anchorage-independent 3D formats.

[4] = tested on: EGFR-amplified esophageal squamous cell carcinoma (KYSE-520); test: Human tumor xenograft model, EGFR-amplified esophageal squamous cell carcinoma; format: in vivo; conditions: oral administration, single agent
Source text: (§2) Compound 1 has also been tested for in vivo anti-tumor activity in multiple xenograft models.

[5] = Nonclinical safety studies; format: in vivo
Source text: Risks associated with MAPK-Pathway Class Inhibitors. Administration of MAPK-pathway inhibitors has been associated with cardiomyopathy, retinopathy, Cardiomyopathy, CPK increase, thromboembolic events, Phototoxicity, and Reproductive Toxicity.

[6] = tested on: KRAS-mutant NSCLC (NCI-H358); test: Human tumor xenograft model, KRAS-mutant NSCLC; format: in vivo; conditions: oral administration, single agent
Source text: as §2

EMT6 mammary carcinoma = test: Anti-tumor efficacy, EMT6 mammary carcinoma in BALB/c mice; format: in vivo
Description: Agents. Compound 1 was formulated in 50 mM Sodium Citrate buffer, pH3.0 at a concentration of […]. Anti-PD-L1 mAbs (Mu IgG2a anti-PD-L1, hereafter referred to as anti-PD-L1) and anti-gp120 isotype control (Mu IgG1 anti-gp120; hereafter referred to as Isotype Control) were formulated as a solution in buffer of 20 mM Histidine Acetate, 240 mM Sucrose, 0.02% Tween 20™, pH 5.5. An oral-dosed vehicle control was 50 mM Sodium Citrate buffer, pH3.0.
Cell Lines. The EMT6 mammary carcinoma cell line was cultured in vitro, harvested in log-phase growth, and resuspended in Hank's Balanced Salt Solution (HBSS) containing Matrigel™ (BD Biosciences; San Jose, CA) at a 1:1 ratio by volume for in vivo inoculation. Animals were each inoculated with 0.1×10^6 cells in the mammary gland (5, left) in a volume of […].
Mice tumor models. 10.6 weeks old Balb/c mice bearing tumors in the range of 141-196 mm^3 were evenly distributed into 4 study groups of 10 mice each. The mean tumor volume across all groups was 165 mm^3 at the start of dosing. The mean starting weight was 19.94 g. All concentrations were calculated based on a mean body weight of 20 g and adjusted for 10% body weight loss or gain. Mice in the various groups received the treatment regimens described in Table 1. Mice were dosed for a total of 28 days or until euthanized at first sign of morbidity or if body weight loss was >20% of their weight at the start of administration.
The study extended beyond 28 days and following the cessation of treatment to check for the durability of response and ended at day 102 wherein remaining mice were all euthanized.
Tumor and Body Weight Measurements. Tumor volumes were measured in two perpendicular dimensions (length and width) using Ultra Cal-IV calipers (model 54-10-111; Fred V. Fowler Co.; Newton, MA) and tumor volume was calculated according to the following formula: […]
Tumors that regressed by >50% relative to their starting volume during the study were categorized as partial responders (PRs) while tumors with a final tumor volume corresponding to full regression were categorized as complete responders (CRs). Animal body weights were measured using an Adventura Pro AV812 scale (Ohaus Corporation; Pine Brook, NJ) and percent change in body weight for each group was calculated and plotted (see FIG. 4). Percent weight change was calculated using the following formula: […]
Growth analysis and group comparisons. […] Analyses and comparisons of tumor growth were performed using a package of customized functions in R (Version 3.6.2); R Foundation for Statistical Computing; Vienna, Austria, which integrates software from open source packages (e.g., lme4, mgcv, gamm4, multcomp, settings, and plyr) and several packages from tidyverse (e.g., magrittr, dplyr, tidyr, and ggplot2) (Forrest et al.; Cancer Res 2020; 80(22):5089-97). All raw tumor volume measurements from 0 (minimum) to 8 mm^3 (maximum value) were judged to reflect complete tumor absence and were converted to 8 mm^3 prior to natural log transformation. A generalized additive mixed model (GAMM) was then applied to describe the changes in transformed tumor volumes over time using regression splines with automatically generated spline bases. This approach addresses both repeated measurements from the same study subjects and moderate dropouts before the end of the study. […]

[7] = Events associated with administration of Compound 1; format: in vivo; conditions: reversible and monitorable events
Source text: Risks Associated with Compound 1.

Fc receptors = conditions: cited from earlier work
[8] = in vivo; cited from earlier work

N[C@@H]1c2ccccc2OC12CCN(c1cnc3c(N4CCCc5ncccc54)n[nH]c3n1)CC2 [Compound 1, (R)-1′-(3-(3,4-dihydro-1,5-naphthyridin-1(2H)-yl)-1H-pyrazolo[3,4-b]pyrazin-6-yl)-3H-spiro[benzofuran-2,4′-piperidin]-3-amine]
IC50 (recombinant human SHP2): 0.7 nM
IFNg expression on tumor-derived CD8+ T cells (EMT6 mammary tumors; PMA/ionomycin restimulation, vs vehicle, p=0.0002 (Compound 1), p=0.0001 (combination)): increase
TNFa expression on tumor-derived CD8+ T cells (EMT6 mammary tumors; PMA/ionomycin restimulation, vs vehicle, p=0.0016 (Compound 1), p=0.0035 (combination)): increase
MFI of PD-L1 expression on tumor cells (CD45 negative) (EMT6 mammary tumors; vs vehicle group, 7 days, p=0.0127 (Compound 1), p=0.0018 (combination)): significant increase
MFI of MHC-I expression on tumor cells (CD45 negative) (EMT6 mammary tumors; vs vehicle group, 7 days, p=0.0354 (Compound 1), p=0.0044 (combination)): significant increase
Polyfunctionality of tumor-infiltrating CD8+ T cells (co-expression of IFNg and TNFa) (EMT6 mammary tumors; vs vehicle group, p=0.0008 (Compound 1), p=0.0011 (combination)): increase
Frequency of M1 population of macrophages (EMT6 mammary tumors; vs vehicle group, p=0.0033 (Compound 1), p=0.0162 (combination)): increase
M2 population of macrophages (EMT6 mammary tumors; vs vehicle group, p=0.0036 (Compound 1), p=0.0007 (combination)): decrease
Frequency of CD8 T cell population in tumor microenvironment (EMT6 mammary tumors; vs vehicle group, p=0.0058 (Compound 1), p=0.008 (combination)): increase
Frequency of MDSCs in tumor (EMT6 mammary tumors; vs vehicle group, p=0.0058 (Compound 1), p=0.0083 (combination)): reduction; also recorded: reduced
Frequency of CD4 T cell population in tumor microenvironment (EMT6 mammary tumors; vs vehicle group, p=0.0067 (Compound 1), p=0.002 (combination)): increase
Frequency of TAMs in tumor (EMT6 mammary tumors; vs vehicle group, p=0.0072 (Compound 1), p=0.0098 (combination)): reduction; also recorded: reduced
Frequency of NK cells in tumor microenvironment (EMT6 mammary tumors; vs vehicle group, p=0.013 (Compound 1), p=0.024 (combination)): increase
IC50 [1]: 1.3 nM
Selectivity against panel [2]: selectively inhibits SHP2
IC50 [3]: < 1 nM
Anti-tumor efficacy, KYSE-520 xenograft [4]: significant anti-tumor efficacy
Nonclinical toxicity findings [5]: did not show evidence of cardiac, pulmonary, renal, thromboembolic, or ophthalmic toxicities
Anti-tumor efficacy, NCI-H358 xenograft [6]: significant anti-tumor efficacy
Legacy % TGI (EMT6 mammary carcinoma; AUC-based, relative to vehicle controls, Compound 1 60 mg/kg PO QD, anti-PD-L1 10 mg/kg IV then 5 mg/kg IP twice weekly): 47%
Anti-tumor efficacy (in words) (EMT6 mammary carcinoma; EMT6 syngeneic tumor model, Compound 1 60 mg/kg QD): no efficacy
EOS CR (complete responders at end of study) (EMT6 mammary carcinoma; end of study day 102, after cessation of 28-day dosing, 10 mice per group): 0 (0.0%)
Growth Contrast, LN (GR) (EMT6 mammary carcinoma; relative to vehicle controls, Compound 1 60 mg/kg PO QD, anti-PD-L1 10 mg/kg IV first dose then 5 mg/kg IP twice weekly): −0.033 LN
PR (partial responders) (EMT6 mammary carcinoma; tumors regressed by >50% relative to starting volume, 10 mice per group): 0 (0.0%)
Events associated with administration [7]: Peripheral Edema, Myelosuppression (e.g., Thrombocytopenia, Anemia), Gastrointestinal Toxicities (e.g., Diarrhea, Nausea, and Vomiting), Elevation of Hepatic Transaminase, and Rash

Atezolizumab: Fc-engineered, humanized, non-glycosylated IgG1 kappa immunoglobulin that binds PD-L1 (SEQ ID NO: 1 and 2)
Binding to Fc receptors (Fc receptors): minimal binding to Fc receptors
Tolerability [8]: generally well tolerated
